Results on 13 compounds are retold here after patent publication US11021493B2, “1,4-thiazine dioxide and 1,2,4-thiadiazine dioxide derivatives as beta-secretase inhibitors and methods of use” (AMGEN INC., priority 2016, dated 2021).

The target in test [1] is T1, BACE1 (Homo sapiens (Human), UniProt P56817). Kind of test: In vitro enzymatic BACE1 FRET assay. The test is classed as biochemical. To be noted: read-out: BACE1 Enzyme IC50.
Target sequence in this assay (P56817 46-501): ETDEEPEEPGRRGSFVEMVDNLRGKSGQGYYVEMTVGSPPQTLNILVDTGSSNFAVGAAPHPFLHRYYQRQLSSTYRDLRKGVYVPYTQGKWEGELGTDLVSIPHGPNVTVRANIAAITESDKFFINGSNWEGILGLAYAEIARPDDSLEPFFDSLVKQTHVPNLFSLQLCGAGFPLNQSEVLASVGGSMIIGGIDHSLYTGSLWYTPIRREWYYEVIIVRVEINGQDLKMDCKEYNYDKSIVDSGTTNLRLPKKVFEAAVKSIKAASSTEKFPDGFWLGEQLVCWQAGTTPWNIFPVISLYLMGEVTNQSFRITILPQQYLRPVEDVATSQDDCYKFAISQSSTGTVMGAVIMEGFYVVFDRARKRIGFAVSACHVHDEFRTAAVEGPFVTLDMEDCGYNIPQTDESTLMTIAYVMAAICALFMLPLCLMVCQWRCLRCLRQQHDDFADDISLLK
Test [2] has as its target T1, BACE1. Description: In vitro BACE1 cell-based assay (Aβ40 in conditioned medium of cells stably expressing APP, HTRF). To be noted: Aβ40 in conditioned media after 24 h incubation.
Target sequence in this assay (P56817 46-501, species assumed): as the sequence (P56817 46-501) above
The target of test [3] is human recombinant BACE2 (Homo sapiens (Human), UniProt Q9Y5Z0). Kind of test: In vitro enzymatic BACE2 FRET assay. To be noted: read-out: BACE2 Enzyme IC50. Type of test: biochemical.
Chain of human recombinant BACE2 (Q9Y5Z0 63-518): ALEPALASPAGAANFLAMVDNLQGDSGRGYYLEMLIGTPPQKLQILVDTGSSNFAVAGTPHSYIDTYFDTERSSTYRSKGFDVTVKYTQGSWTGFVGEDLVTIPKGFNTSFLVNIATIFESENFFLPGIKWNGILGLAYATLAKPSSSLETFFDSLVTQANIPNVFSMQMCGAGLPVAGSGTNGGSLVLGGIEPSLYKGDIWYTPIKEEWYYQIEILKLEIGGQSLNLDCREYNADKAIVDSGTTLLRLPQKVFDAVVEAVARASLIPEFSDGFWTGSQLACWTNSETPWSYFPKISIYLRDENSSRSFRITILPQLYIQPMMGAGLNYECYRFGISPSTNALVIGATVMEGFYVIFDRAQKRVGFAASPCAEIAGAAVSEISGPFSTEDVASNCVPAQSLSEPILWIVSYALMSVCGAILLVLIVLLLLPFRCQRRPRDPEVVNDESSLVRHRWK
For test [4], the target named is Cathepsin D (CatD) (Homo sapiens (Human), UniProt P07339). Description: In vitro enzymatic Cathepsin D (CatD) FRET assay. Type of test: biochemical. The conditions noted are these: read-out: Cat D Enzyme IC50.
Chain of Cathepsin D (CatD) (P07339 65-412, species assumed): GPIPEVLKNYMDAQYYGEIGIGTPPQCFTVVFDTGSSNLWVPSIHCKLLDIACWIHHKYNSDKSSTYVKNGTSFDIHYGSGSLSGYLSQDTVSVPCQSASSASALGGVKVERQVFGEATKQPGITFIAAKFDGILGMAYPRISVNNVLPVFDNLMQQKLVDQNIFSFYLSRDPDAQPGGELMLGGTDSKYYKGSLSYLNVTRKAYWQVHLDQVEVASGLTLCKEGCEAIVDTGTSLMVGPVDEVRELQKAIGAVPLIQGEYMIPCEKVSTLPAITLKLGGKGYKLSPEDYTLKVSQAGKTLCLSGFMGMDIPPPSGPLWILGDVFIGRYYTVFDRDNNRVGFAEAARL

Consider `C=CCOc1cnc(/C(F)=C/c2ccc(F)c([C@@]3(C)N=C(N)[C@@]4(CF)CC[C@@H]3S4(=O)=O)c2)cn1` [Example 125, (1R,4R,5S)-4-(5-((Z)-2-(5-(allyloxy)pyrazin-2-yl)-2-fluorovinyl)-2-fluorophenyl)-2-amino-1-(fluoromethyl)-4-methyl-8-thia-3-azabicyclo[3.2.1]oct-2-ene 8,8-dioxide], for which the IC50 – broadly, the concentration that inhibits the measured activity by half – worked out at 48 nM in test [1], 446 nM in test [2], 163 nM in test [3] and 91200 nM in test [4].
In the case of `C[C@]1(c2cc(/C=C(\F)c3cnc(OCC4COC4)cn3)ccc2F)N=C(N)[C@@]2(CF)CC[C@@H]1S2(=O)=O` [Example 126, (1R,4R,5S)-2-amino-4-(2-fluoro-5-((Z)-2-fluoro-2-(5-(oxetan-3-ylmethoxy)pyrazin-2-yl)vinyl)phenyl)-1-(fluoromethyl)-4-methyl-8-thia-3-azabicyclo[3.2.1]oct-2-ene 8,8-dioxide], the IC50 in test [1] came out at 138 nM; in test [2] it was 457 nM; in test [3] it was 141 nM; in test [4], 100000 nM.
As to `CC1(C)C(N)=N[C@](C)(c2cc(/C=C(\F)c3cnc(OCc4ncco4)cn3)ccc2F)CS1(=O)=O` [Example 129, (R,Z)-5-amino-3-(2-fluoro-5-(2-fluoro-2-(5-(oxazol-2-ylmethoxy)pyrazin-2-yl)vinyl)phenyl)-3,6,6-trimethyl-3,6-dihydro-2H-1,4-thiazine 1,1-dioxide], the IC50 came out at 7 nM in test [1], 5 nM in test [2], 56 nM in test [3] and 163000 nM in test [4].
On the same counts, the results for `COCCOc1cnc(/C(F)=C/c2ccc(F)c([C@@]3(C)N=C(N)[C@@]4(CF)CC[C@@H]3S4(=O)=O)c2)cn1` [Example 130, (1R,4R,5S)-2-amino-4-(2-fluoro-5-((Z)-2-fluoro-2-(5-(2-methoxyethoxy)pyrazin-2-yl)vinyl)phenyl)-1-(fluoromethyl)-4-methyl-8-thia-3-azabicyclo[3.2.1]oct-2-ene 8,8-dioxide] are 33 nM, 60 nM, 163 nM and 173000 nM.
On the same counts, the results for `COC[C@H](C)Oc1cnc(/C(F)=C/c2ccc(F)c([C@@]3(C)N=C(N)[C@@]4(CF)CC[C@@H]3S4(=O)=O)c2)cn1` [Example 131, (1R,4R,5S)-2-amino-4-(2-fluoro-5-((Z)-2-fluoro-2-(5-(((S)-1-methoxypropan-2-yl)oxy)pyrazin-2-yl)vinyl)phenyl)-1-(fluoromethyl)-4-methyl-8-thia-3-azabicyclo[3.2.1]oct-2-ene 8,8-dioxide] are 13 nM, 97 nM, 104 nM and > 400000 nM.
For `C[C@]1(c2cc(/C=C(\F)c3cnc(OCC4CCC4)cn3)ccc2F)N=C(N)[C@@]2(CF)CC[C@@H]1S2(=O)=O` [Example 132, (1R,4R,5S)-2-amino-4-(5-((Z)-2-(5-(cyclobutylmethoxy)pyrazin-2-yl)-2-fluorovinyl)-2-fluorophenyl)-1-(fluoromethyl)-4-methyl-8-thia-3-azabicyclo[3.2.1]oct-2-ene 8,8-dioxide], the IC50 in test [1] is 38 nM; in test [2], 1960 nM; in test [3], 217 nM; in test [4], > 400000 nM.
As for `C[C@]1(c2cc(/C=C(\F)c3cnc(OCCF)cn3)ccc2F)N=C(N)[C@@]2(CF)CC[C@@H]1S2(=O)=O` [Example 133, (1R,4R,5S)-2-amino-4-(2-fluoro-5-((Z)-2-fluoro-2-(5-(2-fluoroethoxy)pyrazin-2-yl)vinyl)phenyl)-1-(fluoromethyl)-4-methyl-8-thia-3-azabicyclo[3.2.1]oct-2-ene 8,8-dioxide], the IC50 in test [1] is 131 nM; in test [2], 339 nM; in test [3] it was 151 nM; in test [4], 428000 nM.
Take `C[C@]1(c2cc(/C=C(\F)c3cnc(OCC(F)F)cn3)ccc2F)N=C(N)[C@@]2(CF)CC[C@@H]1S2(=O)=O` [Example 134, (1R,4R,5S)-2-amino-4-(5-((Z)-2-(5-(2,2-difluoroethoxy)pyrazin-2-yl)-2-fluorovinyl)-2-fluorophenyl)-1-(fluoromethyl)-4-methyl-8-thia-3-azabicyclo[3.2.1]oct-2-ene 8,8-dioxide]: the IC50 in test [1] turned out to be 101 nM; in test [2], 318 nM; in test [3], 123 nM; in test [4] it was 196000 nM.
Turning to `CCCOc1cnc(/C(F)=C/c2ccc(F)c([C@@]3(C)N=C(N)[C@@]4(CF)CC[C@@H]3S4(=O)=O)c2)cn1` [Example 135, (1R,4R,5S)-2-amino-4-(2-fluoro-5-((Z)-2-fluoro-2-(5-propoxypyrazin-2-yl)vinyl)phenyl)-1-(fluoromethyl)-4-methyl-8-thia-3-azabicyclo[3.2.1]oct-2-ene 8,8-dioxide], the IC50 in test [1] is 86 nM; in test [2], 866 nM; in test [3], 120 nM; in test [4] it was > 400000 nM.
With `COC(C)COc1cnc(/C(F)=C/c2ccc(F)c([C@@]3(C)N=C(N)[C@@]4(CF)CC[C@@H]3S4(=O)=O)c2)cn1` (stereo partly drawn) [Example 136, (1R,4R,5S)-2-amino-4-(2-fluoro-5-((Z)-2-fluoro-2-(5-(2-methoxypropoxy)pyrazin-2-yl)vinyl)phenyl)-1-(fluoromethyl)-4-methyl-8-thia-3-azabicyclo[3.2.1]oct-2-ene 8,8-dioxide], the IC50 in test [1] turned out to be 51 nM; in test [2] it was 218 nM; in test [3] it was 315 nM; in test [4], 78200 nM.
Turning to `CC#CCOc1cnc(/C(F)=C/c2ccc(F)c([C@@]3(C)N=C(N)[C@@]4(CF)CC[C@@H]3S4(=O)=O)c2)cn1` [Example 137, (1R,4R,5S)-2-amino-4-(5-((Z)-2-(5-(but-2-yn-1-yloxy)pyrazin-2-yl)-2-fluorovinyl)-2-fluorophenyl)-1-(fluoromethyl)-4-methyl-8-thia-3-azabicyclo[3.2.1]oct-2-ene 8,8-dioxide], the IC50 is 1 nM in test [1], 4 nM in test [2], 44 nM in test [3] and 65300 nM in test [4].
Regarding `C#CCOc1cnc(/C(F)=C/c2ccc(F)c([C@@]3(C)N=C(N)N(C)S(=O)(=O)C34CC4)c2)cn1` [Example 138, (8R)-8-(2-fluoro-5-((Z)-2-fluoro-2-(5-(2-propyn-1-yloxy)-2-pyrazinyl)ethenyl)phenyl)-5,8-dimethyl-4-thia-5,7-diazaspiro[2.5]oct-6-en-6-amine 4,4-dioxide], the IC50 in test [1] turned out to be 16 nM; in test [2], 78 nM; in test [3] it was 622 nM; in test [4], 125000 nM.
As for `CN1C(N)=N[C@](C)(c2cc(/C=C(\F)c3cnc(Cl)cn3)ccc2F)C2(CC2)S1(=O)=O` [Example 139, (8R)-8-(5-((Z)-2-(5-chloro-2-pyrazinyl)-2-fluoroethenyl)-2-fluorophenyl)-5,8-dimethyl-4-thia-5,7-diazaspiro[2.5]oct-6-en-6-amine 4,4-dioxide], the IC50 in test [1] is 49 nM; in test [2], 198 nM; in test [3], 70 nM; in test [4], 428000 nM.
